The source of these data is ChEMBL document CHEMBL2380241, “Identification of novel SIRT3 inhibitor scaffolds by virtual screening” (Bioorg Med Chem Lett, 2013).

Active and inactive are the calls of the source. No cut-off for these calls is given here.

In experiment [1] the target is T1, NAD-dependent protein deacetylase sirtuin-3, mitochondrial (Homo sapiens) (UniProt Q9NTG7).
T1 sequence (whole entry): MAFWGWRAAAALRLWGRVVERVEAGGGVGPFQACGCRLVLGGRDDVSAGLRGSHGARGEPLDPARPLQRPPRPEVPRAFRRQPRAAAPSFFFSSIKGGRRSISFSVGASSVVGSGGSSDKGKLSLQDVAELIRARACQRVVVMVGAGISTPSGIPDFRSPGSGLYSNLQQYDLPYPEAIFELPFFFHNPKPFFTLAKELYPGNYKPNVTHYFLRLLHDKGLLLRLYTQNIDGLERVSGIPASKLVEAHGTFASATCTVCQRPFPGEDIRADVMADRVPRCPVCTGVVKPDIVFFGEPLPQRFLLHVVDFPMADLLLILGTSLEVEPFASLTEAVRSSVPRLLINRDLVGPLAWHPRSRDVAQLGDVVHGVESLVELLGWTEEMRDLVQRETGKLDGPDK
The experiment in a line: Inhibition of recombinant His-tagged SIRT3 (unknown origin) using Fluor de Lys acetylated KI179 as substrate at 200 uM incubated for 5 mins followed by enzyme addition measured after 1 hr by fluorescence assay relative to control.

In experiment [2] the target is T2, NAD-dependent protein deacetylase sirtuin-2 (Homo sapiens) (UniProt Q8IXJ6).
T2 sequence (whole entry): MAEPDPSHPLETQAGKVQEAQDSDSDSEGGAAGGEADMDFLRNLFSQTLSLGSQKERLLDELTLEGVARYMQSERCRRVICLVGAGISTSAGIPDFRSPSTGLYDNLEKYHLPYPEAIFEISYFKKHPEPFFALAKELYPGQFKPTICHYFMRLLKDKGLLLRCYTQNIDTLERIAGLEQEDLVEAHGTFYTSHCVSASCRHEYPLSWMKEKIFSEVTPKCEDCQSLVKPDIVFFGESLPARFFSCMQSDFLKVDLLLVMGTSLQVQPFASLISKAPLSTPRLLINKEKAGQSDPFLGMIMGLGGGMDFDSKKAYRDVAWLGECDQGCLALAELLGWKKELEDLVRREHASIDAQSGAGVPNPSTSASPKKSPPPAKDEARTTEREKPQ
The experiment in a line: Inhibition of recombinant GST-tagged SIRT2 (unknown origin) using Fluor de Lys acetylated KI179 as substrate at 200 uM incubated for 5 mins followed by enzyme addition measured after 1 hr by fluorescence assay relative to control.

The target in experiment [3] is T3, NAD-dependent protein deacetylase sirtuin-1 (Homo sapiens) (UniProt Q96EB6).
T3 sequence (whole entry): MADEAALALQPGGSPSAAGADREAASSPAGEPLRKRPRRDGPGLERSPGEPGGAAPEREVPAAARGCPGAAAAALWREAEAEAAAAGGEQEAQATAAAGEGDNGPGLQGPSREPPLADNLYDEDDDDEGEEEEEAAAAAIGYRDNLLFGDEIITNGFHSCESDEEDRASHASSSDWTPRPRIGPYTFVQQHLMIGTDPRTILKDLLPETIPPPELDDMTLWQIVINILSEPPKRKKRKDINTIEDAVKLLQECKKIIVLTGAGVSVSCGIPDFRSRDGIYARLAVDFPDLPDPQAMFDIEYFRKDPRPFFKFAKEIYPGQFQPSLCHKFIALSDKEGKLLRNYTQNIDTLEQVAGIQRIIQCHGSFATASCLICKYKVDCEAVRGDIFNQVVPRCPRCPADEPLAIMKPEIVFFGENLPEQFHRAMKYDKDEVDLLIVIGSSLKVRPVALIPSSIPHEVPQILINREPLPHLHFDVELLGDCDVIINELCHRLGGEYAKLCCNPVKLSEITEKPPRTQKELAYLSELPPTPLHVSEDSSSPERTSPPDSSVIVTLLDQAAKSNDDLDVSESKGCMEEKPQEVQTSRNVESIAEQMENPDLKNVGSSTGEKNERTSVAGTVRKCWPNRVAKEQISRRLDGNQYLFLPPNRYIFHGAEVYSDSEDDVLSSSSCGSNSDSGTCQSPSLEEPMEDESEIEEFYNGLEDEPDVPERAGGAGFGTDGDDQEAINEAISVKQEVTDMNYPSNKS
The experiment in a line: Inhibition of recombinant GST-tagged SIRT1 (unknown origin) using Fluor de Lys acetylated KI177 as substrate at 200 uM incubated for 5 mins followed by enzyme addition measured after 1 hr by fluorescence assay relative to control.

In general, inhibition refers to the percentage by which the read-out fell short of the control. Consider `COc1cccc(-c2noc(CCC(=O)Nc3ccc(NC(C)=O)cc3)n2)c1`, for which the inhibition in experiment [1] came out at 6.8%.

Take `COc1cccc(-c2nc3cc(NC(=O)Cc4ccccc4)ccc3o2)c1`: the inhibition in experiment [1] is 44%.

For `O=C(Cc1ccccc1)Nc1ccc2oc(-c3ccccc3F)nc2c1`, in experiment [1], the inhibition worked out at 16%.

As to `O=C(/C=C/c1ccccc1)Nc1ccc2oc(-c3ccccc3F)nc2c1`, in experiment [1], the inhibition was found to be 38%.

For `O=C1CC(N2CCN(c3ccc([N+](=O)[O-])cc3)CC2)C(=O)N1c1ccccc1` (stereo not given), the inhibition in experiment [1] worked out at 74%.

`O=C(CCC(=O)Nc1ccc(F)c(Cl)c1)Nc1ccc(F)c(Cl)c1`: the inhibition in experiment [1] was 1.9%.

Consider `O=C(Cc1ccccc1)Nc1ccc2oc(-c3ccccc3Cl)nc2c1`, for which the results for the inhibition in experiment [2], in experiment [1] and in experiment [3] were 44%, 51% and 17%, respectively.

As to `O=C(Cc1ccccc1)Nc1ccc2oc(-c3ccc(Cl)cc3Cl)nc2c1`, the inhibition in experiment [2] worked out at 72%; in experiment [1], 71%; in experiment [3], 27%.

For `CC(=O)Nc1ccc(NC(=O)CCC(=O)OCC(=O)c2cccc([N+](=O)[O-])c2)cc1`, the inhibition in experiment [1] came to 6.7%.

Consider `Cc1ccc(NC(=O)NCC2CCN(Cc3cc(C)ccc3Cl)CC2)c(C)c1`, for which the inhibition in experiment [1] was 7.5%.

In the case of `O=C(Cc1ccccc1)Nc1ccc2oc(-c3cccc(Cl)c3)nc2c1`, the inhibition in experiment [1] came out at 17%.

Take `O=C1CC(N2CCN(c3ccc(F)cc3)CC2)C(=O)N1Cc1ccccc1` (stereo not given): in experiment [1], the inhibition turned out to be 6.9%.

For the compound `O=C(Cc1ccccc1)Nc1ccc2oc(-c3cccc(Cl)c3Cl)nc2c1`, the inhibition in experiment [2] stood at 40%; in experiment [1], 48%; in experiment [3] it was 19%.

For the compound `Cc1cccc(CN2CCC(CNC(=O)NCc3ccc(F)cc3)CC2)c1`, the inhibition in experiment [1] was 5.6%.

As to `O=C1CC(N2CCN(c3ccc(Cl)cc3)CC2)C(=O)N1c1ccc(F)cc1` (stereo not given), the inhibition in experiment [1] was 9.2%.

As for `O=C(NCC1CCN(Cc2ccccc2Cl)CC1)Nc1cccc(Cl)c1`, the inhibition in experiment [1] worked out at 7.5%.

Consider `COc1ccc(CCNC2CC(=O)N(CCc3ccc(OC)c(OC)c3)C2=O)cc1OC` (stereo not given), for which the inhibition in experiment [1] turned out to be 16%.

In the case of `O=C1CC(N2CCN(c3cccc(C(F)(F)F)c3)CC2)C(=O)N1c1ccc(Cl)cc1` (stereo not given), the inhibition in experiment [1] came to 20%.

As to `O=C(Cc1ccc(Cl)cc1)Nc1ccc2oc(-c3ccccc3Br)nc2c1`, the inhibition in experiment [1] came out at 32%.

Turning to `O=C1CC(N2CCN(c3ccc(F)cc3)CC2)C(=O)N1c1ccc2c(c1)OCO2` (stereo not given), in experiment [1], the inhibition stood at 6.4%.

Regarding `Cc1cccc(N2C(=O)CC(N3CCN(c4cccc(C(F)(F)F)c4)CC3)C2=O)c1` (stereo not given), the inhibition in experiment [1] stood at 13%.

Turning to `O=C(/C=C/c1ccccc1)Nc1ccc2oc(-c3ccccc3Cl)nc2c1`, the inhibition turned out to be 78% in experiment [2], 48% in experiment [1] and 27% in experiment [3].

For the compound `O=C1CC(N2CCN(c3cccc(C(F)(F)F)c3)CC2)C(=O)N1c1ccc(I)cc1` (stereo not given), the inhibition in experiment [1] is 11%.

Turning to `COc1ccc(N2C(=O)CC(N3CCN(c4ccccc4O)CC3)C2=O)cc1` (stereo not given), in experiment [1], the inhibition was determined as 8.4%.

Take `O=C(Cc1ccccc1)Nc1ccc2oc(-c3cc(Cl)ccc3Cl)nc2c1`: the figures for the inhibition in experiment [2], in experiment [1] and in experiment [3] were 73%, 65% and 33%, respectively.

As for `O=C(Cc1ccccc1)Nc1ccc2oc(-c3cc(F)c(F)cc3Cl)nc2c1`, in experiment [1], the inhibition was 41%.

With `Cc1ccc(-c2nc3cc(NC(=O)Cc4ccccc4)ccc3o2)cc1`, in experiment [1], the inhibition amounted to 17%.

Regarding `NS(=O)(=O)c1ccc(CCNC2CC(=O)N(c3ccc(Cl)c(Cl)c3)C2=O)cc1` (stereo not given), the inhibition in experiment [1] was determined as 11%.

Turning to `COc1ccc(N2C(=O)CC(NCCc3ccc(S(N)(=O)=O)cc3)C2=O)cc1` (stereo not given), the inhibition in experiment [1] is 7.6%.

For `Cc1ccc(N2C(=O)CC(N3CCN(c4ccc(F)cc4)CC3)C2=O)cc1` (stereo not given), the inhibition in experiment [1] worked out at 6.6%.

`O=C(Nc1ccc(Nc2ccccc2)cc1)c1c(Cl)cccc1Cl`: the inhibition in experiment [1] was 22%.

Take `Cc1cccc(-c2nc3cc(NC(=O)Cc4ccccc4)ccc3o2)c1`: the inhibition in experiment [1] turned out to be 32%.

`COc1ccc(N2C(=O)CC(N3CCN(c4ccc(S(C)(=O)=O)cc4)CC3)C2=O)cc1` (stereo not given): the inhibition in experiment [1] was 5.6%.

In the case of `CCOc1ccc(N2C(=O)CC(N3CCN(C(=O)c4cccnc4)CC3)C2=O)cc1` (stereo not given), the inhibition in experiment [1] worked out at 10%.

With `O=C1CC(N2CCC(Cc3ccccc3)CC2)C(=O)N1c1ccc(F)cc1` (stereo not given), the inhibition in experiment [1] came to 15%.

For the compound `O=C(Cc1ccccc1)Nc1ccc2oc(-c3ccc(F)cc3Cl)nc2c1`, in experiment [1], the inhibition is 13%.

In the case of `O=C(Cc1ccccc1)Nc1ccc2oc(-c3ccc(Cl)cc3)nc2c1`, in experiment [1], the inhibition came out at 13%.

Consider `O=C1CC(N2CCN(c3cccc(C(F)(F)F)c3)CC2)C(=O)N1c1cccc(Cl)c1` (stereo not given), for which, in experiment [1], the inhibition turned out to be 13%.

Regarding `O=C(CSc1ncnc2c1oc1ccccc12)Nc1cccc(O)c1`, the inhibition in experiment [2] amounted to 35%; in experiment [1], 39%. In addition, the inhibition entry in experiment [3] is “inactive”.

Turning to `O=C1C(Cl)=C(Nc2cccc(O)c2)C(=O)N1CCc1ccccc1`, the inhibition in experiment [1] came to 72%.

Turning to `O=C1CC(N2CCN(c3ccc(O)cc3)CC2)C(=O)N1c1ccccc1` (stereo not given), the inhibition in experiment [1] is 6.5%.

Turning to `O=C(CSCC(=O)Nc1ccc2ccccc2c1)NCc1ccccc1`, the inhibition in experiment [1] was 6.3%.

As for `O=C(Cc1ccccc1)Nc1ccc2oc(-c3ccccc3Br)nc2c1`, in experiment [1], the inhibition turned out to be 33%.

`O=C(Cc1ccc(Cl)cc1)Nc1ccc2oc(-c3ccccc3F)nc2c1`: the inhibition in experiment [1] worked out at 17%.

As to `NS(=O)(=O)c1ccc(NC(=O)COC(=O)CN2C(=O)C(=O)c3ccccc32)cc1`, the inhibition in experiment [1] was determined as 34%.

As to `Cc1ccccc1CC1CCN(CCCNC(=O)Nc2ccccc2)CC1`, in experiment [1], the inhibition was determined as 10%.

Consider `CCOc1ccc(N2C(=O)CC(N3CCN(C(=O)c4ccccc4)CC3)C2=O)cc1` (stereo not given), for which the inhibition in experiment [1] is 5%.

On to `O=C(c1ccccc1)N1CCN(C2CC(=O)N(c3cccc(Cl)c3)C2=O)CC1` (stereo not given), for which the inhibition in experiment [1] stood at 11%.
